As usually defined, the fold induction is the ratio of treated to control signal. Lower therefore signals little rise in signal. Broadly, the GI50 is the concentration that inhibits growth by half. Read a high GI50 as less potent growth inhibition.

What all share (format): cell-based
In assay [1] the target is T1, HDAC6 (α-tubulin acetylation) (Homo sapiens, UniProt Q9UBN7).
T1 construct: endogenous in cells; host or cells: HeLa
T1 sequence (Q9UBN7 1-1215): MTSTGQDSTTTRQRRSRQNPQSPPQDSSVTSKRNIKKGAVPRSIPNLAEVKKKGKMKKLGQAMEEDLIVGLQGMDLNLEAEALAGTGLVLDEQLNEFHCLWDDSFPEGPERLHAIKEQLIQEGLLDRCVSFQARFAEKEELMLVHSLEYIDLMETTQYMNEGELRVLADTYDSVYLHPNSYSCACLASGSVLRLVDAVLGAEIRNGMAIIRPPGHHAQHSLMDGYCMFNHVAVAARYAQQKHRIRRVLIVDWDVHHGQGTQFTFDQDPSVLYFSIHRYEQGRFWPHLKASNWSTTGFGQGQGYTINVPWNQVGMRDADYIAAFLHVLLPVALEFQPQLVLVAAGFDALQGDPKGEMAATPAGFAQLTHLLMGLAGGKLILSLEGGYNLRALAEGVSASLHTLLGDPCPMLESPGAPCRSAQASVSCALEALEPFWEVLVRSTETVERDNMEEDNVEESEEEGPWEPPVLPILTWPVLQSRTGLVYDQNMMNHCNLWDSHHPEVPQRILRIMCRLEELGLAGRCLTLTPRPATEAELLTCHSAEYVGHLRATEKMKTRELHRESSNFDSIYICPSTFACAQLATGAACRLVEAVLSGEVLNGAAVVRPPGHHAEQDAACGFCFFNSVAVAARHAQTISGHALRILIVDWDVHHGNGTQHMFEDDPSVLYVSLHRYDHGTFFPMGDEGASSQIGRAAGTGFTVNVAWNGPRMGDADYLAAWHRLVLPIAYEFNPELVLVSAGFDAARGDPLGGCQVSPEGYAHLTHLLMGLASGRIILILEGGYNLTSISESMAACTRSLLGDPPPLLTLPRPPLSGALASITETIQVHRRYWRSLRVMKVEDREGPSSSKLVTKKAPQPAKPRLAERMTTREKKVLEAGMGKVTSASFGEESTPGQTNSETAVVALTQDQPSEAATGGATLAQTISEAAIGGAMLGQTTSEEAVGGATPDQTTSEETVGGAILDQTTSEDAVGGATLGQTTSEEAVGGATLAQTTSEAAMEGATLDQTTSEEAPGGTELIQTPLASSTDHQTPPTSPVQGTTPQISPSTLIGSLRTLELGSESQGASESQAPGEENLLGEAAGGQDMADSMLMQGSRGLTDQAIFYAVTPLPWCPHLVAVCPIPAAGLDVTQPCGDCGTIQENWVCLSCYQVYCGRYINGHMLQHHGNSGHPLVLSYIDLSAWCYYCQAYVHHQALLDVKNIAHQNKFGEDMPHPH
In words: ELISA assay of acetylation of α-tubulin in HeLa cells. Conditions: M-HeLa, 24 hours. As for the experimental part:
Measurement of acetylation activity in cells on substrates:
ELISA assay of acetylation of α-tubulin
This assay is used to measure in vivo inhibition of HDAC6 in a cytoblot assay. Materials and Reagent: • 1. 24-well tissue culture • 2. DMEM Medium containing 10% FBS • 3. 96-well white plate • 4. HeLa cell line • 5. M-PER Mammalian Protein Extraction Reagent (Pierce) • 6. Bradford assay reagent • 7. Anti-acetyl-tubulin (Upstate) • 8. HRP-labeled anti-mouse IgG (Upstate) • 9. Coating Buffer: 15 mM Na2CO3, 35 mM NaHCO3 (pH 9.6) • 10. 10×PBS: 0.58 M Na2HPO4, 0.17M NaH2PO4, 0.68M NaCl (pH 7.4) • 11. Wash Buffer:1×PBS containing 0.05% Tween-20 (PBST) • 12. Blocking Buffer:10 mg/ml bocine serum albumin (BSA) in PBS • 13. Antibody Dilution Buffer: 5 mg/ml BSA in PBST • 14. Enhanced chemiluminescence (ECL) (Amersham)
Procedure for performing the assay in 96-well plate: • 1. HeLa cells were seeded at a density of 60000 cells/500 μl/well in 24-well plate and incubated at 37° C. for 24 hours. • 2. Compounds were added and incubated for 24 hours at 37° C. • 3. Culture medium was removed, then washes the cells twice with ice-cold PBS. • 4. Add 100 μl/well of Protein Extraction Reagent and gently shake the mixture for 5 minutes. • 5. Collect the lysate to a 96-well plate respectively. Determine the concentration of protein by Bradford assay. • 6. Coat the wells of a 96-well white plate with 100 μl/well of 2.5 μg whole cell protein in Coating Buffer by incubating overnight at 4° C. • 7. Discard the uncoated proteins and wash the coated wells three times with 200 μl/well of PBST. • 8. Block coated wells by incubating the plate with 200 μl/well of Blocking Buffer for 1 hour at 37° C. • 9. Wells were aspirated and washed three times with 200 μl/well of PBST. • 10. After aspirating, 50 μl/well of Antibody Dilution Buffer containing anti-Ac-tubulin (1:1000) were added to each well and incubated for 2 hour at 37° C. • 11. Wells were aspirated and washed three times with 200 μl/well of PBST. • 12. 50 μl/well of Antibody Dilution Buffer containing HRP-labeled anti-mouse IgG (1:2000) were added to each well and incubated for 2 hour at 37° C. • 13. Wells were aspirated and washed three times with 200 μl/well of PBST. • 14. Wells were washed three times with 200 μl/well of purified water. • 15. Add 50 μl/well of ECL mixture, then read the plates on the plate reader.

For assay [2], the system named is A549 human lung cancer cell line. In words: Anti-cell proliferation (MTS), A549. As to conditions: 72 hours. The procedure: (§1) Measurement of in vivo cell proliferation:
(§2) Tumor cells were trypsinized and plated into 96-well plates at 3,000 per well and incubated in complete medium with 10% FBS for 24 hours. Compounds were added over a final concentration range of 100 μmol/L to 100 nmol/L in 0.1% DMSO and incubated for 72 hours in complete medium. The effects on proliferation were determined by addition of MTS reagent (Promega) according to the instruction, incubation for 2 hours at 37° C. in CO2 incubator, and record the absorbance at 490 nm using an ELISA plate reader.

Assay [3] relates to Hut-78 human T lymphoma cell line. In words: Anti-cell proliferation (MTS), Hut-78. Conditions: HuT78, 72 hours. The procedure: as §1, §2
In assay [4] the test system is HL60 human leukemia cell line. In words: Anti-cell proliferation (MTS), HL60. Conditions: HL-60, 72 hours. The procedure: as §1, §2
Assay [5] concerns HeLa human cervical cancer cell line. Briefly: Anti-cell proliferation (MTS), HeLa. Conditions: 72 hours. The procedure:
as §1, §2

Consider `Cc1[nH]c(/C=N/N=C2\C(=O)Nc3ccc(F)cc32)c(C)c1C(=O)NCCCCC(=O)Nc1ccccc1N` [Example 7, 5-(5-(((5-fluoro-2-oxoindolin-3-ylidene)hydrazono)methyl)-2,4-dimethyl-1H-pyrrole-3-carboxamido)-N-(2-aminophenyl)pentanamide], for which the fold induction at 10 µM in assay [1] was determined as 1.03.
Same read-out and setting: the figure for `Cc1[nH]c(/C=N/N=C2\C(=O)Nc3ccc(F)cc32)c(C)c1C(=O)NCCCCC(=O)Nc1ccc(F)cc1N` [Example 8, 5-(5-(((5-fluoro-2-oxoindolin-3-ylidene)hydrazono)methyl)-2,4-dimethyl-1H-pyrrole-3-carboxamido)-N-(2-amino-4-fluorophenyl)pentanamide] is 1.76.
Still for that read-out and setting: the figure for `Cc1[nH]c(/C=N/N=C2\C(=O)Nc3ccc(F)cc32)c(C)c1C(=O)NCCCCCC(=O)NO` [Example 11, 6-(5-(((5-fluoro-2-oxoindolin-3-ylidene)hydrazono)methyl)-2,4-dimethyl-1H-pyrrole-3-carboxamido)-N-hydroxyhexanamide] is 2.17.
The same measure, in the same setting: the figure for `Cc1[nH]c(/C=N/N=C2\C(=O)Nc3ccc(F)cc32)c(C)c1C(=O)NCCCCCC(=O)Nc1ccc(F)cc1N` [Example 12, 6-(5-(((5-fluoro-2-oxoindolin-3-ylidene)hydrazono)methyl)-2,4-dimethyl-1H-pyrrole-3-carboxamido)-N-(2-amino-4-fluorophenyl)hexanamide] is 2.04; for `Cc1[nH]c(/C=N/N=C2\C(=O)Nc3ccc(F)cc32)c(C)c1C(=O)NCCCCCC(=O)Nc1ccccc1N` [Example 13, 6-(5-(((5-fluoro-2-oxoindolin-3-ylidene)hydrazono)methyl)-2,4-dimethyl-1H-pyrrole-3-carboxamido)-N-(2-aminophenyl)hexanamide] it is 2.73.
On to `Cc1[nH]c(/C=N/N=C2\C(=O)Nc3ccc(F)cc32)c(C)c1C(=O)NCCCCCCCC(=O)NO` [Example 26, 8-(5-(((5-fluoro-2-oxoindolin-3-ylidene)hydrazono)methyl)-2,4-dimethyl-1H-pyrrole-3-carboxamido)-N-hydroxyoctanamide], for which the GI50 in assay [2] was found to be 35.5 µM; in assay [3], 14.1 µM; in assay [4] it was 9.33 µM; in assay [5], 25.7 µM. The same compound came in with a fold induction at 10 µM in assay [1] of 1.85.
In the case of `Cc1[nH]c(/C=N/N=C2\C(=O)Nc3ccc(F)cc32)c(C)c1C(=O)NCCCCCCCC(=O)Nc1ccc(F)cc1N` [Example 27, 8-(5-(((5-fluoro-2-oxoindolin-3-ylidene)hydrazono)methyl)-2,4-dimethyl-1H-pyrrole-3-carboxamido)-N-(2-amino-4-fluorophenyl)octanamide], the GI50 in assay [2] is over 100 µM; in assay [3], 6.92 µM; in assay [4], 5.89 µM; in assay [5] it was over 100 µM. This compound also came in with a fold induction at 10 µM in assay [1] of 1.64.
Turning to `Cc1[nH]c(/C=N/N=C2\C(=O)Nc3ccc(F)cc32)c(C)c1C(=O)NCCCCCCCC(=O)Nc1ccccc1N` [Example 28, 8-(5-(((5-fluoro-2-oxoindolin-3-ylidene)hydrazono)methyl)-2,4-dimethyl-1H-pyrrole-3-carboxamido)-N-(2-aminophenyl)octanamide], the GI50 worked out at 36.3 µM in assay [2], 4.27 µM in assay [3], 4.37 µM in assay [4] and 28.2 µM in assay [5]. In assay [1], the fold induction at 10 µM is 1.74.
`O=C(CCCCCNC(=O)c1ccc(/C=N/N=C2\C(=O)Nc3ccc(F)cc32)cc1)NO` [Example 31, 6-(4-(((5-fluoro-2-oxoindolin-3-ylidene)hydrazono)methyl)benzamido)-N-hydroxyhexanamide] had a fold induction at 10 µM in assay [1] of 1.88.
Same read-out and setting: the figure for `Nc1ccccc1NC(=O)CCCCCNC(=O)c1ccc(/C=N/N=C2\C(=O)Nc3ccc(F)cc32)cc1` [Example 32, 6-(4-(((5-fluoro-2-oxoindolin-3-ylidene)hydrazono)methyl)benzamido)-N-(2-aminophenyl)hexanamide] is 2.59.
The same measure, in the same setting: the figure for `Nc1ccccc1NC(=O)CCCCCCCNC(=O)c1ccc(/C=N/N=C2\C(=O)Nc3ccc(F)cc32)cc1` [Example 35, 8-(4-(((5-fluoro-2-oxoindolin-3-ylidene)hydrazono)methyl)benzamido)-N-(2-aminophenyl)octanamide] is 1.39; for `O=C(CCCCCNC(=O)c1ccc(/C=C2\C(=O)Nc3ccc(F)cc32)cc1)NO` [Example 41, 6-(4-((5-fluoro-2-oxoindolin-3-ylidene)methyl)benzamido)-N-hydroxyhexanamide] it is 1.47; for `Nc1cc(F)ccc1NC(=O)CCCCCNC(=O)c1cccc(/C=C2\C(=O)Nc3ccc(F)cc32)c1` [Example 45, 6-(3-((5-fluoro-2-oxoindolin-3-ylidene)methyl)benzamido)-N-(2-amino-4-fluorophenyl)hexanamide] it is 1.64.
The same measure, in the same setting: the figure for `O=C(CCCCCNC(=O)c1cccc(/C=C2\C(=O)Nc3ccc(F)cc32)c1)NO` [Example 46, 6-(3-((5-fluoro-2-oxoindolin-3-ylidene)methyl)benzamido)-N-hydroxyhexanamide] is 2.07; for `Nc1ccccc1NC(=O)CCCCNC(=O)c1cccc(/C=C2\C(=O)Nc3ccc(F)cc32)c1` [Example 49, 5-(3-((5-fluoro-2-oxoindolin-3-ylidene)methyl)benzamido)-N-(2-aminophenyl)pentanamide] it is 2.39; for `O=C(CCCCNC(=O)c1cccc(/C=C2\C(=O)Nc3ccc(F)cc32)c1)NO` [Example 51, 5-(3-((5-fluoro-2-oxoindolin-3-ylidene)methyl)benzamido)-N-hydroxypentanamide] it is 1.97.
With `Nc1cc(F)ccc1NC(=O)CCCCCCCNC(=O)c1cccc(/C=C2\C(=O)Nc3ccc(F)cc32)c1` [Example 55, 8-(3-((5-fluoro-2-oxoindolin-3-ylidene)methyl)benzamido)-N-(2-amino-4-fluorophenyl)octanamide], in assay [1], the fold induction at 10 µM is 1.49.

The record behind these values is US7863315B2, “2-indolinone derivatives as selective histone deacetylase inhibitors” (Shenzhen Chipscreen Biosciences, Ltd., priority 2008, dated 2011).
